Values joined by “and” are separate entries in the source; they are usually repeats but may differ in a detail not shown here. Equal entries are not always repeated.
Test: In vitro stability in PBS (radio-TLC)
Assay type: physicochemical
Settings: 37 °C, normalized to 0 h, n = 3
Experimental: Stability of the ^55Co-labeled folates was monitored over a period of 24 h in phosphate buffered saline (PBS) and mouse serum, to monitor the stability of a dose prior to injection (for potential shipment to a PET center) and match the longest biodistribution time point, respectively. The percentage of the intact complex was monitored at 1 h, 4 h, and 24 h via radio-TLC (PBS) or HPLC (mouse serum). […] In PBS, both radioconjugates retained 93% or greater stability at 24 h. […] As a control, one group of replicate serum tubes contained only [^55Co]CoCl2. […] Therefore, the peak corresponding to free [^55Co]CoCl2 (tR = 2.2 min) was used to determine the overall serum stability of the ^55Co-labeled chelates, which was approximately 95% for each compound at 24 h.
The ^55Co-labeled folate derivatives were diluted 10-fold in 10 mM PBS (pH = 7.4) or whole mouse serum (EMD Millipore, Burlington, MA) in 1.5 mL centrifuge tubes to final volumes of 100 μL. The tubes were incubated at 37 °C with vortexing at 900 rpm using an Eppendorf ThermoMixer C (Eppendorf, Hamburg, Germany) equipped with a 1.5 mL heating block. In the case of PBS stability, three replicate tubes were prepared with average final activity concentrations of 37 kBq (1 μCi) [^55Co]Co-cm10/μL or 37 kBq (1 μCi) [^55Co]Co-rf42/μL, and the final concentrations of precursor were 0.07 mM of cm10 or rf42. The percent of the intact complex was determined by analyzing 1 μL aliquots of each solution by radio-TLC at 1 h, 4 h and 24 h. For mouse serum stability, three replicate tubes were prepared for each time point for each complex. The final average activity concentrations were 11.1 kBq (0.3 μCi) [^55Co]Co-cm10/μL and 7.4 kBq (0.2 μCi) [^55Co]Co-rf42/μL and 0.02 mM final folate concentration. A control sample was prepared for each time point that contained an average of 10.4 kBq/μL of [^55Co]CoCl2. At each time point, 300 μL of ACN was added to each tube to precipitate serum proteins. The tubes were centrifuged at 4500 rpm for 5 min using a benchtop microcentrifuge (Eppendorf, Hamburg, Germany) and the supernatants collected. The pellets were washed once more, and the supernatants were collected and combined with the first ACN wash. The activities in the pellets and supernatants were determined using a 2480 Wizard2 Automatic Gamma Counter (Perkin Elmer, Waltham, MA, USA) to determine the amount of activity associated with the protein pellet. To determine the percentage of intact complex, the supernatant was diluted 2-fold with water, and 100 μL of this mixture was injected into the HPLC.

Nc1nc2ncc(CNc3ccc(C(=O)N[C@@H](CCC(=O)NC(CCCCNC(=O)CCC(C(=O)O)N4CCN(CC(=O)O)CCN(CC(=O)O)CC4)C(=O)NC(CCCCNC(=O)CCCc4ccc(I)cc4)C(=O)O)C(=O)O)cc3)nc2c(=O)[nH]1.[55Co] (stereo partly drawn) [[^55Co]Co-rf42]
percent intact complex, PBS (1 h): 98 ± 2%
percent intact complex, PBS (4 h): 95.6 ± 0.9%
percent intact complex, PBS (24 h): 93% and 93 ± 3%

Nc1nc2ncc(CNc3ccc(C(=O)N[C@@H](CCC(=O)NC(CCCCNC(=O)CN4CCN(CC(=O)O)CCN(CC(=O)O)CCN(CC(=O)O)CC4)C(=O)NC(CCCCNC(=O)CCCc4ccc(I)cc4)C(=O)O)C(=O)O)cc3)nc2c(=O)[nH]1.[55Co] (stereo partly drawn) [[^55Co]Co-cm10]
percent intact complex, PBS (1 h): 97 ± 2%
percent intact complex, PBS (4 h): 95 ± 1%
percent intact complex, PBS (24 h): 93% and 93.4 ± 0.3%

From publication PMC6958329, “New ^55Co-labeled Albumin-Binding Folate Derivatives as Potential PET Agents for Folate Receptor Imaging” (Pharmaceuticals, 2019)
